Where “and” joins values, the source holds several entries; their conditions need not be identical. Equal entries are not always repeated.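 48-hour exposure; five concentrations; linearly interpolated endpoints. At the GI50, growth is halved. The concentration for full growth arrest is given as TGI.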
How the values were obtained:
Test in all cases: NCI anticancer screen, dose series, 48 h
NCI-H226 lung = test system: NCI-H226 lung
M14 melanoma = test system: M14 melanoma
HS 578T breast = test system: HS 578T breast
MDA-MB-435 = test system: MDA-MB-435
OVCAR-5 ovarian = test system: OVCAR-5 ovarian
SK-MEL-5 melanoma = test system: SK-MEL-5 melanoma
SW-620 colon = test system: SW-620 colon
HCT-15 colon = test system: HCT-15 colon
RPMI-8226 leukemia = test system: RPMI-8226 leukemia
OVCAR-4 ovarian = test system: OVCAR-4 ovarian

| SMILES | TGI (NCI-H226 lung) | TGI (M14 melanoma) | TGI (HS 578T breast) | TGI (MDA-MB-435) | TGI (OVCAR-5 ovarian) | TGI (SK-MEL-5 melanoma) | TGI (SW-620 colon) | TGI (HCT-15 colon) | TGI (RPMI-8226 leukemia) | TGI (OVCAR-4 ovarian) | GI50 (NCI-H226 lung) | GI50 (M14 melanoma) | GI50 (RPMI-8226 leukemia) | GI50 (OVCAR-4 ovarian) | GI50 (HS 578T breast) | GI50 (MDA-MB-435) | GI50 (OVCAR-5 ovarian) | GI50 (SK-MEL-5 melanoma) | GI50 (SW-620 colon) | GI50 (HCT-15 colon) |
| --- | --- | --- | --- | --- | --- | --- | --- | --- | --- | --- | --- | --- | --- | --- | --- | --- | --- | --- | --- | --- |
| COC1CC2CCC(C)[C@](O)(O2)C(=O)C(=O)N2CCCCC2C(=O)OC(C(C)CC2CCC(O)C(OC)C2)CC(=O)C(C)C=C(C)C(OC(=O)CN(C)C)C(OC)C(=O)C(C)CC(C)/C=C/C=C/C=C\1C (some centres not stated) | 22.3 µM | 23 µM | 16.9 µM | 19.2 µM | 26.4 µM | 19.8 µM | 21.9 µM | 22.6 µM | – | – | – | – | – | – | – | – | – | – | – | – |
| COC(=O)C1C(=O)O[C@@H](c2ccc(OC)cc2OC)C1C(=O)OC (some centres not stated) | > 100 µM | > 100 µM | – | – | > 100 µM | > 100 µM | > 100 µM | > 100 µM | > 100 µM | > 100 µM | – | – | – | – | – | – | – | – | – | – |
| O=C1/C(=C/c2ccc(Cl)cc2)CN(C(=O)C(Cl)Cl)C/C1=C\c1ccc(Cl)cc1 | 0.454 µM | 0.749 µM | 2.33 µM | 0.396 µM | 0.799 µM | 0.58 µM | 0.231 µM | 0.793 µM | 0.169 µM | 1.32 µM | 0.211 µM | 0.242 µM | 0.0302 µM | 0.283 µM | 0.312 µM | 0.194 µM | 0.287 µM | 0.231 µM | 0.04 µM | 0.0577 µM |
| O=C(CC(=O)C(F)(F)F)c1csc2ccccc12 | – | 68.9 µM | – | – | > 100 µM | > 100 µM | > 100 µM | > 100 µM | 91.6 µM | – | – | – | – | – | – | – | – | – | – | – |
| COC(=O)[C@@H](C)C[C@H](Cc1ccccc1)NC(=O)c1csc([C@@H](C[C@H](C(C)C)N(C)C(=O)[C@@H](NC(=O)[C@H]2CCCCN2C)C(C)C)OC(C)=O)n1 | > 25 µM | 0.000531 µM | – | 0.000135 µM and < 0.0025 µM | > 25 µM | 0.00301 µM and < 0.0025 µM | > 25 µM | > 25 µM | 7.54 µM | > 25 µM | 0.0025 µM | 0.000134 µM | – | – | 0.000641 µM | < 0.0001 µM | 0.000369 µM and 0.0025 µM | < 0.0001 µM | – | 0.00031 µM and 0.0025 µM |
| CSC(=S)NNC(=O)c1ccncc1 | 52.6 µM | 42.3 µM | – | – | 48.7 µM | 62.6 µM | 23.6 µM | 28.3 µM | 47.8 µM | – | – | – | – | – | – | – | – | – | – | – |
| Cc1cc(C)n(-c2c(O)ccc(O)c2-n2nc(C)cc2C)n1 | – | > 100 µM | – | – | > 100 µM | > 100 µM | > 100 µM | > 100 µM | > 100 µM | > 100 µM | – | – | – | – | – | – | – | – | – | – |
| O=C1C=CC2(C=C1)CCN=c1c(O)c3c(c(O)c12)=NC=N3 | 38.4 µM and > 100 µM | 23.7 µM and > 100 µM | 71.4 µM and > 100 µM | – | 37.4 µM and > 100 µM | – | 32.2 µM and > 100 µM | 29.9 µM and > 100 µM | 42.3 µM and > 100 µM | 29.7 µM and > 100 µM | 19 µM and > 100 µM | 11.3 µM and > 100 µM | 12.2 µM and > 100 µM | 15.9 µM and > 100 µM | – | – | 22.4 µM and > 100 µM | – | 10.1 µM and > 100 µM | 14.5 µM and > 100 µM |
| C[C@]12CCC(=O)C=C1CC[C@@H]1[C@@H]2CC[C@]2(C)C(=O)/C(=C/c3cccc(OCCN4CCOCC4)c3)C[C@@H]12 | > 100 µM | 21.5 µM | 66.7 µM | 21.8 µM | 34 µM | 15.7 µM | 27.7 µM | 42.1 µM | – | > 100 µM | 14.2 µM | 8.9 µM | – | 3.01 µM | 16.6 µM | 4.92 µM | 13.4 µM | 4.17 µM | 8.45 µM | 5.29 µM |
| CC1OC(O)CC(OC(=O)c2ccccc2)C1OC(=O)c1ccccc1 (configuration not stated) | – | 30.3 µM | – | – | > 100 µM | 31.4 µM | 26.7 µM | 29.3 µM | 31.8 µM | 28.8 µM | – | – | – | – | – | – | – | – | – | – |
| CCC(=C(c1ccc(OCc2ccccc2)cc1)c1ccc(OCc2ccccc2)cc1)c1ccc(OC)cc1 | > 100 µM | > 100 µM | – | – | > 100 µM | > 100 µM | > 100 µM | > 100 µM | > 100 µM | > 100 µM | – | – | – | – | – | – | – | – | – | – |
| COC(=O)C1=CC2OC1(C)C1(CC1)C2=O (configuration not stated) | 43.5 µM | 29.1 µM | – | – | 57.4 µM | – | 34 µM | 40 µM | 30.3 µM | 24 µM | – | – | – | – | – | – | – | – | – | – |
| CC(=O)Nc1ccc(/C=C/C(=O)c2sc(C(N)=S)nc2C)cc1 | > 100 µM | – | – | – | > 100 µM | > 100 µM | > 100 µM | > 100 µM | > 100 µM | – | – | – | – | – | – | – | – | – | – | – |
| CC(C)=CCC/C(C)=C/CC/C(=C/COP(=O)(OCc1ccc([N+](=O)[O-])o1)N(C)CCCCCl)C(C)(C)C (configuration not stated) | – | 11.8 µM | 1.06 µM | 30.8 µM | 32.8 µM | 11.4 µM | 8.57 µM | 6.79 µM | 12.3 µM | 33.1 µM | – | 2.69 µM | 1.45 µM | 11.8 µM | – | 10.1 µM | 16.2 µM | 3.29 µM | 3.07 µM | 1.66 µM |
| Cc1ccc(C2=NO[C@@H]3C(=O)N(c4ccc(Cc5ccc(N6C(=O)[C@H]7C(c8ccc(C)cc8)=NO[C@H]7C6=O)cc5)cc4)C(=O)[C@H]23)cc1 | > 100 µM | > 100 µM | – | – | > 100 µM | > 100 µM | > 100 µM | > 100 µM | > 100 µM | > 100 µM | – | – | – | – | – | – | – | – | – | – |
| O=C(C=Nc1ccccc1C(=O)[O-])c1cccs1.O=C(C=Nc1ccccc1C(=O)[O-])c1cccs1.[Cu+2] | – | > 100 µM | – | – | > 100 µM | – | > 100 µM | > 100 µM | – | – | – | – | – | – | – | – | – | – | – | – |
| CC[C@H](C)C(=O)O[C@H]1CCC=C2C=C[C@H](C)C(CCC3C[C@@H](O)CC(=O)O3)[C@H]21 (some centres not stated) | 46 µM | > 100 µM | > 100 µM | > 100 µM | > 100 µM | 71.4 µM | > 100 µM | > 100 µM | – | > 100 µM | 6.2 µM | – | – | 22.7 µM | 5.19 µM | 39.3 µM | 20.8 µM | 3.78 µM | 12 µM | 4.83 µM |
| CC1C2=CC=C(O2)C(C)(C)C2=CC=C(O2)C(C)(C)C2=CC=C(O2)C(C)(C)C2=CC=C1O2 | > 100 µM | – | – | – | > 100 µM | – | > 100 µM | > 100 µM | – | > 100 µM | – | – | – | – | – | – | – | – | – | – |
| CCCCCCCCCC(=O)OCC1OC(n2cc(F)c(=O)[nH]c2=O)C(N)C(OC(=O)CCCCCCCCC)C1O (configuration not stated) | – | 34.3 µM | – | – | – | 37.4 µM | 31.8 µM | 34.7 µM | 48.4 µM | 31 µM | – | – | – | – | – | – | – | – | – | – |
| Nc1nc(N)c(-c2ccc(Cl)cc2)c(CCC(=O)Nc2cccc(C(F)(F)F)c2)n1 | > 100 µM | > 100 µM | – | – | > 100 µM | > 100 µM | > 100 µM | > 100 µM | – | > 100 µM | – | – | – | – | – | – | – | – | – | – |

From PubChem BioAssay (NCI)
